Results reported in US7438931B2, “Methods and compositions for the treatment of angiogenic diseases” (The Regents of The University of Michigan, priority 1998, dated 2008).

Key:
[1] = tested on: mouse sarcoma, MCA205, and a mouse melanoma, B16B16; experiment: Mouse tumor model, injected tumor cells in C57B1/6J mice; type: in vivo
Method: Under these guidelines, anti-angiogenesis therapeutic studies were conducted using TM in a mouse tumor model. This study involved subcutaneous or intramuscular injection of tumor cells into young adult C57B1/6J mice. Two tumors were used, a mouse sarcoma, MCA205, and a mouse melanoma, B16B16. The MCA 205 tumor cell suspension was injected subcutaneously into C57B16 mice. After the tumors were palpable, copper deficiency was induced by use of TM in half the animals, using Cp levels to monitor copper status. The other half were sham treated. Tumor growth was compared between the untreated control group and mice treated with sufficient TM to reduce Cp to about 10% of normal controls.

Serum ceruloplasmin (Cp) = experiment: Phase I trial: serum ceruloplasmin as surrogate marker of total-body copper; type: in vivo, human
Method: Three dose regimens were evaluated. All dose levels consisted of TM 20 mg given 3 times daily with meals plus an escalating (levels I, II, and III) in-between meal dosing, given 3 times daily, for a total of 6 doses per day. Loading dose levels I, II, and III provided TM at 10 mg, 15 mg, and 20 mg, 3 times daily between meals, respectively, in addition to the 3 doses of 20 mg each, given with meals, at all dose levels.
Baseline Cp was taken as the nearest Cp measurement to day 1 of treatment, including day 1, since the blood was drawn pre-TM, for all patients. The target Cp reduction was defined as 20% of baseline Cp. Due to Cp assay variability of approximately 2%, a change of Cp to 22% of baseline was considered as achieving the desired reduction of copper. In addition, if the absolute Cp was less than 5 mg/dl, then the patient was considered as having reached the target Cp. No patient reached the target due to an absolute Cp of less that 5 mg/dl, without also being at least 78% reduced from baseline. After reaching the target copper deficient state, TM doses were individually tailored to maintain Cp within a target window of 70-90% reduction from baseline.
A method was required to monitor copper status easily and reliably, so that TM dose could be adjusted appropriately during this trial. With TM administration, serum copper is not a useful measure of total-body copper, because the TM-copper-albumin complex is not rapidly cleared, and the total serum copper (including the fraction bound to the TM-protein complex) actually increases during TM therapy (Brewer et al., 1991a; 1994b; 1996). The serum ceruloplasmin level obtained weekly was used as a surrogate measure of total-body copper status. The serum Cp level is controlled by Cp synthesis by the liver, which, in turn, is determined by copper availability to the liver (Linder et al., 1979). […] The serum Cp level is in the range of 20-35 mg/dl and 30-65 mg/dl for normal controls and cancer patients, respectively. The objective as this trial was to reduce Cp to or below 20% of baseline, and to maintain this level, within a window spanned by (20±10) % of the baseline Cp, with typical Cp values in the range of 7-12 mg/dl. Since there appears to be no untoward clinical effects from this degree of copper reduction, this level of copper deficiency has been termed “chemical copper deficiency”. The first indication of true clinical copper deficiency is a reduction in blood cell counts, primarily anemia, as copper is required for heme synthesis as well as cellular proliferation (Brewer et al., 1996). Thus, the copper deficiency objective of this trial was to reduce the Cp to 20% of baseline or below, without decreasing the patient's hematocrit or WBC to below 80% of the baseline value at entry.
Complete blood counts, liver and renal function tests, urinalyses, and Cp level (by the oxidase method) were performed weekly for 16 weeks, then bi-weekly. Physical examinations and evaluations of toxicity were carried out every 2 weeks for 8 weeks, then every 4 weeks for the duration of therapy. Toxicity was evaluated using the National Cancer Institute Common Toxicity Criteria (Table 3). As TM is not a cytotoxic drug at the doses employed, and it has already been given to humans without any other toxicities than the ones described in detail above, the majority of the toxicities listed in Table 3, should they arise, are not expected to be due to TM. Nevertheless, therapy will be discontinued and the patient removed from the study if grade 3 or higher toxicities of any type are observed, whatever the probable etiology. For grade 2 toxicities, an attempt will be made to establish their etiology.

[2] = for eight weeks; cited from earlier work
[3] = approximately 6 mg of TM per kilogram of diet; cited from earlier work
[4] = initial TM doses 90 to 120 mg per day, six times per day regimen

tetrathiomolybdate [TM]
tumor growth ([1]; TM sufficient to reduce Cp to about 10% of normal, 16 days of observation): Tumor growth was slowed by the treatment, although not halted
tumor weight normalized to total weight of the animal ([1]; TM-treated vs control mice): weighed significantly less than the tumors in control mice
No. of Patients: Achieved Target Cp (Serum ceruloplasmin (Cp); 18 patients): 14
No. of Patients: Did Not Achieve Target Cp (Serum ceruloplasmin (Cp); 18 patients): 4
time to Cp 50% of baseline, mean (Serum ceruloplasmin (Cp); 90, 105 and 120 mg/day): 30 days
time to Cp 50% of baseline, median (Serum ceruloplasmin (Cp); 90, 105 and 120 mg/day): 28 days
time for further reduction to Cp levels of 5-10 mg/dl (Serum ceruloplasmin (Cp); after reduction to 50% of baseline): 20 to 30 days
effect of increasing in-between meals dose on Cp decrease (Serum ceruloplasmin (Cp); from 10 mg 3× daily to 15 mg or 20 mg 3× daily): no significant effect on the rate of decrease of the Cp level
No. of Patients: Target Cp <90 days (Serum ceruloplasmin (Cp); in vivo): 8/14
No. of Patients: Target Cp >90 days (Serum ceruloplasmin (Cp); in vivo): 6/14
patients maintained at the target Cp for more than 90 days (Serum ceruloplasmin (Cp); in vivo): 39 % of those treated
time to rapid rise in Cp when TM was discontinued (Serum ceruloplasmin (Cp); in vivo): ≤ 48 h
patients with serum Cp lowered to 20% of baseline (Serum ceruloplasmin (Cp); [4]): 14 out of 18
patients with serum Cp lowered to 50% of baseline (Serum ceruloplasmin (Cp); [4]): 17 out of 18
reaching the target Cp (Serum ceruloplasmin (Cp); level III dose 120 mg/day): effective in reaching the target Cp, without added toxicity
potency retained in gelatin capsules [2]: at least 90%
effects on copper [3]: reduction of plasma ceruloplasmin and a reduction in liver and kidney copper
water solubility (Water solubility): moderately water soluble
